From US11634451B2, “Method for the site-specific enzymatic labelling of nucleic acids in vitro by incorporation of unnatural nucleotides” (The Scripps Research Institute, priority 2013, dated 2023)

Legend:
T7 RNA polymerase = T7 RNA polymerase (Escherichia phage T7, UniProt P00573); settings: ribonucleotide triphosphates, FIG. 7
OneTaq polymerase = assay: PCR-based screen and amplification of DNA containing unnatural base pairs, OneTaq (Example 1); type: biochemical; settings: OneTaq
Method: (§1) The triphosphates of the 6 group were prepared from the previously reported nucleosides (Kubelka, T., Slavetinska, L., Eigner, V. and Hocek, M. Synthesis of 2,6-disubstituted pyridin-3-yl C-2′-deoxyribonucleosides through chemoselective transformations of bromo-chloropyridine C-nucleosides. Org. Biomol. Chem., 11, 4702-4718) according to Ludwig, J. and Eckstein, F. Rapid and efficient synthesis of nucleoside 5′-0-(1-thiotriphosphates), 5′-triphosphates and 2′,3′-cyclophosphorothioates using 2-chloro-4H-1,3,2-benzodioxaphosphorin-4-one. J. Org. Chem., 54, 631-635. The purity of all other triphosphates was confirmed by MALDI-TOF and UV-VIS. Taq and OneTaq DNA polymerases were purchased from New England Biolabs (Ipswich, Mass.). A mixture of dNTPs was purchased from Fermentas (Glen Burnie, Md.). SYBR Green I Nucleic Acid Gel Stain (10,000×) was purchased from Life Technologies (Carlsbad, Calif.). The synthesis of the DNA templates, D8 (Malyshev, D. A., Dhami, K., Quach, H. T., Lavergne, T., Ordoukhanian, P., Torkamani, A. and Romesberg, F. E. Efficient and sequence-independent replication of DNA containing a third base pair establishes a functional six-letter genetic alphabet. Proc. Natl. Acad. Sci. USA, 109, 12005-12010), used for screening rounds 1-5, and D6 (Malyshev, D. A., Seo, Y. J., Ordoukhanian, P. and Romesberg, F. E. PCR with an expanded genetic alphabet. J. Am. Chem. Soc., 131, 14620-14621), used for all other amplifications, was described previously. Sanger sequencing was carried out as described previously (Malyshev, D. A., Dhami, K., Quach, H. T., Lavergne, T., Ordoukhanian, P., Torkamani, A. and Romesberg, F. E. Efficient and sequence-independent replication of DNA containing a third base pair establishes a functional six-letter genetic alphabet. Proc. Natl. Acad. Sci. USA, 109, 12005-12010). Raw Sanger sequencing traces were used to determine the percent retention of the unnatural base pairs, which was converted to fidelity per doubling, as described (Malyshev, D. A., Dhami, K., Quach, H. T., Lavergne, T., Ordoukhanian, P., Torkamani, A. and Romesberg, F. E. Efficient and sequence-independent replication of DNA containing a third base pair establishes a functional six-letter genetic alphabet. Proc. Natl. Acad. Sci. USA, 109, 12005-12010; Malyshev, D. A., Seo, Y. J., Ordoukhanian, P. and Romesberg, F. E. PCR with an expanded genetic alphabet. J. Am. Chem. Soc., 131, 14620-14621).
(§2) All PCR amplifications were performed in a CFX Connect Real-Time PCR Detection System (Bio-Rad), in a total volume of 25 μL using the following conditions: 1× OneTaq reaction buffer, 0.5× Sybr Green I, MgSO4 adjusted to 4.0 mM, 0.2 mM of each dNTP, 50 μM of each unnatural triphosphate, […] of Primer1 and Primer2 (See Table 2), and 0.02 U/μl of the DNA polymerase. Other conditions specific for each round of screening are described in Table 3. Amplified products were purified using DNA Clean and Concentrator-5 spin columns from Zymo Research (Irvine, Calif.). After purification, the PCR products were sequenced on a 3730 DNA Analyzer (Applied Biosystems) to determine the retention of the unnatural base pair as described below. Fidelity was characterized from unnatural base pair (UBP) retention as determined by sequencing with Primer1 on a 3730 DNA Analyzer (Applied Biosystems).
(§3) Specific PCR assay conditions. PCR with the most promising UBPs was carried out with the conditions as described in Table 3. PCR products were further purified on […] gels, followed by single band excision and subsequent clean up using the Zymo Research Zymoclean Gel DNA Recovery Kit. After elution with 20 μl of water, the DNA concentration was measured using fluorescent dye binding (Quant-iT dsDNA HS Assay kit, Life Technologies), and purified amplicons were sequenced in triplicate with both Primer1 and Primer2 to determine UBP retention and thus amplification fidelity. […]

OneTaq = assay: PCR amplification assay to determine fidelity, OneTaq (Example 3); type: biochemical
Method: (§4) PCR assay. PCR amplifications were performed in a total volume of 25 μL and with conditions specific for each assay as described in Table 9. After amplification, a 5 μL aliquot was analyzed on a 6% non-denaturing PAGE gel ran along with 50 bp ladder (Life Technologies) to confirm amplicon size. The remaining solution was purified by spin-column (DNA Clean and Concentrator-5; Zymo Research, Irvine, Calif.), followed by 4% agarose gel, recovered with Zymoclean Gel DNA Recovery Kit (Zymo Research), quantified by fluorescent dye binding (Quant-iT dsDNA HS Assay kit, Life Technologies), and sequenced on a 3730 DNA Analyzer (Applied Biosystems). Fidelity was determined as the average % retention of the unnatural base pair per doubling as described below.
(§5) Determination of fidelity. The percent retention of an unnatural base pair (F) was measured using raw sequencing data and normalized to fidelities per doubling. Briefly, the presence of an unnatural nucleotide leads to a sharp termination of the sequencing profile, while mutation to a natural nucleotide results in “readthrough”. The extent of the “read-through” is thus inversely correlated with the retention of the unnatural base pair. To use the sequencing data as a quantitative measurement of PCR fidelity, we performed calibration experiments in the range of 50-100% retention of the unnatural base pair. Therefore, low retention (<50%) and high “read-through” make the quantification inaccurate.
(§6) Quantification of the high retention (>50%) was performed by adjusting the start and stop points for the Sequencing Analysis software (Applied Biosystems) and then determining the average signal intensity individually for each channel (A, C, G and T) for peaks within those defined points (35-45 nucleotides in length) before (section L) and S36 after (section R) the unnatural nucleotide. The R/L ratio was normalized using sequencing calibration plots to account for both noise in the sequencing chromatograms and the read-through in the control samples. […]

Taq polymerase [1] = molecular target: T1, Taq polymerase (Thermus aquaticus, UniProt P19821); assay: PCR-based screen and amplification of DNA containing unnatural base pairs, Taq (Example 1); type: biochemical; settings: Taq, 10 s Extension, 52 cycles, D6 template
T1 construct: purchased New England Biolabs (Ipswich, Mass.)
T1 sequence (P19821 whole entry): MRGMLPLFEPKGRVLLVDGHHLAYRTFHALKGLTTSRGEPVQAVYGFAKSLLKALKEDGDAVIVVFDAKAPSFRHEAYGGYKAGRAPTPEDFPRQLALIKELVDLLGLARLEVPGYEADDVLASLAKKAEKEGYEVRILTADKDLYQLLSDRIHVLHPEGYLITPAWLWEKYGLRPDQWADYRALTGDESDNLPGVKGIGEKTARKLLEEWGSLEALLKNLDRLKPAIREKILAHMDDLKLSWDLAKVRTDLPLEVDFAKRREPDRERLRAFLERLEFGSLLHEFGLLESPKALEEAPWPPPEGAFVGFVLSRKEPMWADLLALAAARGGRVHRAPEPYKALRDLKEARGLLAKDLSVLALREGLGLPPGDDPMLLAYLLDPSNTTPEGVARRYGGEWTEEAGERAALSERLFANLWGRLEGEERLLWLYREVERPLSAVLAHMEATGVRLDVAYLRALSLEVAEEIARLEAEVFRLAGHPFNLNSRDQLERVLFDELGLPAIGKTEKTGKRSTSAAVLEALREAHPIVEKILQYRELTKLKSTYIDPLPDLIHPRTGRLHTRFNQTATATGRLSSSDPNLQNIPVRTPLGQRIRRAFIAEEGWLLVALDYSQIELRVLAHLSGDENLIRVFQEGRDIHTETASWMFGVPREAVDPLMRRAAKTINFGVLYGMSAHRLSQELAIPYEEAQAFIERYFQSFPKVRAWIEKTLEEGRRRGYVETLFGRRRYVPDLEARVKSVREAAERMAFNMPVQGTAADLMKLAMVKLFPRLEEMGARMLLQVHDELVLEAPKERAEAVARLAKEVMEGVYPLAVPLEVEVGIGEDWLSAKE
Method: as §1, §2, §3

Taq polymerase [2] = molecular target: T1, Taq polymerase; assay: PCR amplification assay to determine fidelity, Taq (Example 3); type: biochemical
Method: as §4, §5, §6

[3] = PCR incorporation of d5SICS α-thiotriphosphate opposite dNaM; type: biochemical; settings: standard PCR
Method: The amplification efficiency and fidelity of incorporation of d(5SICS-αS)TP is greater than 99% and virtually identical to results obtained with d5SICS. To functionalize this unnatural base pair, we reacted the site-specifically incorporated phosphorothioate bond with iodoacetyl-PEG2-biotin to label the DNA duplex with the biotin functionality.^8 To characterize this site-specific adduct, we incubated it in the presence of streptavidin and then quantified the functionalization by gel shift assay. We were able to convert 60-70% of the phosphorothioate bond to the functionalized derivative, which is a standard efficiency (70%) for labeling protocols previously reported in literature (See Fidanza, J. A.; Ozaki, H.; McLaughlin, L. W., Site-specific labeling of DNA sequences containing phosphorothioate diesters. J. Am. Chem. Soc. […], 114 (14), 5509-5517.). These conjugated derivatives show high stability under conditions typical for heat denaturation of DNA duplexes, i.e. at 50° C. overnight within the range of pH 6.0-8.3 (<10% decomposition), as well as for at 95° C. for 3 minutes at pH 8.3 (<5% decomposition). We envision that the phosphorothioate strategy can be equally well employed with other unnatural base pairs, including d5SICS-dMMO2 and d5SICS-dNaM.

[4] = 1 min Extension, 52 cycles, D6 template
[5] = OneTaq, standard PCR conditions

Sequence of T7 RNA polymerase (P00573 whole entry): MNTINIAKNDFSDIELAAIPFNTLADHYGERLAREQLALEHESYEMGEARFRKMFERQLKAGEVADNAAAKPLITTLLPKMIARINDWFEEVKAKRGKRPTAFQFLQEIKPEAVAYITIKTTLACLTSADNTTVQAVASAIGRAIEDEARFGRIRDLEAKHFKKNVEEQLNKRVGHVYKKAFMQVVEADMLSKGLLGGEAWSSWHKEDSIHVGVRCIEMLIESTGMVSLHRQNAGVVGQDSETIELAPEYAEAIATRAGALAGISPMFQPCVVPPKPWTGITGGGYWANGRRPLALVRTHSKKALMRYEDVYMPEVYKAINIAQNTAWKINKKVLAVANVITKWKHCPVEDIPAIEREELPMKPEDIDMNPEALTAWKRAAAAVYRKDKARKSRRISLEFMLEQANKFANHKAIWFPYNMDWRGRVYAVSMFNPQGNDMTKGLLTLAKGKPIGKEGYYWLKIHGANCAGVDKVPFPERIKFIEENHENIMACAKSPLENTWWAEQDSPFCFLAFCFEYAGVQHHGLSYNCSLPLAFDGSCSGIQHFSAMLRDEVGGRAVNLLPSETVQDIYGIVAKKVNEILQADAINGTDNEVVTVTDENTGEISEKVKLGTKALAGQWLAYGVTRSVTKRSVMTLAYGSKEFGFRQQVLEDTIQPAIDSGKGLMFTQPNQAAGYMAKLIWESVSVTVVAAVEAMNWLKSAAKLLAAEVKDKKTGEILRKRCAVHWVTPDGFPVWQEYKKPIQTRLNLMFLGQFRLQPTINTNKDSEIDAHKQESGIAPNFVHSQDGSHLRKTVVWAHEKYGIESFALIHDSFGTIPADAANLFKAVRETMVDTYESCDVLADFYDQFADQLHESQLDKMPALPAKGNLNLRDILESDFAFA

With COc1cc(C)c(C#CCNC(=O)C(Cl)Cl)cc1[C@@H]1O[C@H](COP(=O)(O)OP(=O)(O)OP(=O)(O)O)[C@@H](O)[C@H]1O [MMO2^PA] the “transcription into RNA” value (T7 RNA polymerase) was “high efficiency and fidelity”.

With COc1cc2ccccc2cc1[C@H]1C[C@H](O)[C@@H](COP(=O)(O)OP(=O)(O)OP(=O)(O)O)O1.O=P(O)(O)OP(=O)(O)OP(=O)(O)OC[C@H]1O[C@@H](n2ccc3ccsc3c2=S)C[C@@H]1O [TPT3-NaM] the “Fidelity, %” value (OneTaq polymerase; 16 cycles, 1 min extension) was 99.92 ± 0.11%, the “Retention, %” value (OneTaq polymerase; 16 cycles, 1 min extension) was 99.23 ± 1.12% and the Amplification (OneTaq polymerase; 16 cycles, 1 min extension, -^a = no amplification was detected) was 1004. For the same compound, the “Amplification, ×10^12” value (OneTaq polymerase; [4]) was 8.3 ×10^12, the “Fidelity per Doubling, %” value (OneTaq polymerase; [4]) was 99.79 ± 0.03% and the “Retention, %” value (OneTaq polymerase; [4]) was 91.2 ± 1.3%. The “Fidelity, %” value (OneTaq; OneTaq PCR (48 cycles), D6 template, dXTP with dNaMTP) was greater than 99.98%, the “amplification efficiency relative to DNA containing just the natural base pairs” value (OneTaq; [5]) was 4 fold lower and the error rate (OneTaq; [5]) was 10^−4 per nucleotide. For the same compound, the “Amplification, ×10^12” value (Taq polymerase [1]) was 5.8 ×10^12, the “Fidelity per Doubling, %” value (Taq polymerase [1]) was 99.66 ± 0.01% and the “Retention, %” value (Taq polymerase [1]) was 86.5 ± 0.5%. The “Fidelity, %” value (Taq polymerase [2]; Taq PCR (20 cycles), D6 template, dXTP with dNaMTP) was 99.7%, the “amplification efficiency relative to a natural base pair” value (Taq polymerase [2]; Taq polymerase) was 2.5 fold lower and the error rate (Taq polymerase [2]; Taq polymerase) was 10^−3.

For Cc1ccc2c(=S)n([C@H]3C[C@H](O)[C@@H](COP(O)(=S)OP(=O)(O)OP(=O)(O)O)O3)ccc2c1 (some centres unmarked) [d(5SICS-αS)TP], the “amplification efficiency and fidelity of incorporation” value [3] was “greater than 99%”.
